Source: patent publication US20120015919A1, “THERAPIES FOR TREATING CANCER USING COMBINATIONS OF COX-2 INHIBITORS AND AROMATASE INHIBITORS OR COMBINATIONS OF COX-2 INHIBITORS AND ESTROGEN RECEPTOR ANTAGONISTS” (Tragara Pharmaceuticals, Inc., priority 2007, published 2012)

Details: human, in vivo

SMILES: CCOc1ccc(-c2cc(C)cn2-c2ccc(S(N)(=O)=O)cc2)cc1 [2-(4-ethoxyphenyl)-4-methyl-1-(4-sulfamoylphenyl)-pyrrole]
- gastric or duodenal toxicity compared to placebo: no increase
